{"source": "patent US20250314586A1", "about": "“SYSTEMS AND METHODS FOR HIGH THROUGHPUT SINGLE MOLECULE TRACKING IN LIVING CELLS” (EIKON THERAPEUTICS, INC., priority 2022, published 2025)", "key": {"Estrogen Receptor (ER) [1]": {"molecular_target": "T1, Estrogen Receptor (ER) (Homo sapiens, UniProt P03372)", "T1 construct": "expressed in transfected cells; host or cells: U2OS", "T1 sequence (P03372 1-595)": "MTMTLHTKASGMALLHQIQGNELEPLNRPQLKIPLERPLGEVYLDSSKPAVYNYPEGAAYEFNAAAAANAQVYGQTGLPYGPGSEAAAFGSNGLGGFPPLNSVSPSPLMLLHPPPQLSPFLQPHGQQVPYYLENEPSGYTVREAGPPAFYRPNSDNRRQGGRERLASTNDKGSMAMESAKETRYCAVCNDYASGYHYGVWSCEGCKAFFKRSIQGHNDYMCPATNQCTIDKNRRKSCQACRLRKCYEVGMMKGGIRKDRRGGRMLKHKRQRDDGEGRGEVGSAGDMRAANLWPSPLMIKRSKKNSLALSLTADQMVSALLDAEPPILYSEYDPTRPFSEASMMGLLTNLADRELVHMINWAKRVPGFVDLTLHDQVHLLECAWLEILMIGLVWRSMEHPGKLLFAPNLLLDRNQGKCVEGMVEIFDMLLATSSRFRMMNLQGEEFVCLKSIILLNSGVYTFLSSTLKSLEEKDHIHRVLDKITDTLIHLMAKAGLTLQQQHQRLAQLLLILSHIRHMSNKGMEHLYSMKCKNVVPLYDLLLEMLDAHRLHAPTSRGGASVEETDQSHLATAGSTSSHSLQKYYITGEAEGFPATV", "test": "htSMT of Halo-ER in U2OS cells (fbound, Dfree)", "type": "cell-based", "settings": "for effect of pathway inhibitors on ER fbound / ER movement: retest and dose titration of pathway inhibitors"}, "[2]": {"molecular_target": "T2, glucocorticoid receptor (GR) (Homo sapiens, UniProt P04150)", "T2 construct": "Because U2OS cells express GR endogenously, HaloTag was inserted right before the stop codon of endogenous NR3C1; endogenous in cells; host or cells: U2OS (CRISPR/Cas9 knock-in at the NR3C1 locus)", "T2 sequence (P04150 1-777)": "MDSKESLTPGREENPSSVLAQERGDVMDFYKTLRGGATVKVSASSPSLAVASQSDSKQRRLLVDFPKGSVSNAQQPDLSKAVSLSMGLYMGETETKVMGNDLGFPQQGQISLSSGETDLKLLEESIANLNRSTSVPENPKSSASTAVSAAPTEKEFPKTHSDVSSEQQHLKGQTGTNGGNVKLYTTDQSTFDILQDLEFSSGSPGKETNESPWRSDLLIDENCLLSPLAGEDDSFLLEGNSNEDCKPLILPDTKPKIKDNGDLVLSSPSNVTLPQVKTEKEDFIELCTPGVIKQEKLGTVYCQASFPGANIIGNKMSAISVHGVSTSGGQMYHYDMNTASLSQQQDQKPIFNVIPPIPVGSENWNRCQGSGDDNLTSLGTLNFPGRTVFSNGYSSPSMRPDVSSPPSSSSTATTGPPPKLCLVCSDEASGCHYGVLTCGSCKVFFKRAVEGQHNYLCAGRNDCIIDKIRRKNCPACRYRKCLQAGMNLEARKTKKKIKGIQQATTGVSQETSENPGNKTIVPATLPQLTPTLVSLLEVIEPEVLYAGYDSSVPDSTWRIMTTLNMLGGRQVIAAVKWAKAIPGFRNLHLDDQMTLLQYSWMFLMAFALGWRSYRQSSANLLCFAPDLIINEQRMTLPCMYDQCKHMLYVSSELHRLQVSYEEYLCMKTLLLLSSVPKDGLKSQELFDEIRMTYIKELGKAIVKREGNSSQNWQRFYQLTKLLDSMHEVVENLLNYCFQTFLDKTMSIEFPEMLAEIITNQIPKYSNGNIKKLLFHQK", "test": "htSMT of Halo-GR in U2OS cells", "type": "cell-based", "settings": "1 μM antagonist, singly or co-administered with cognate agonist", "excerpt": "Where appropriate, compounds were serially diluted in an Echo Qualified 384-Well Low Dead Volume Source Microplate (0018544, Beckman Coulter) to generate dose-titration source material."}, "androgen receptor (AR)": {"molecular_target": "androgen receptor (AR) (Homo sapiens, UniProt P10275)", "sequence (P10275 whole entry)": "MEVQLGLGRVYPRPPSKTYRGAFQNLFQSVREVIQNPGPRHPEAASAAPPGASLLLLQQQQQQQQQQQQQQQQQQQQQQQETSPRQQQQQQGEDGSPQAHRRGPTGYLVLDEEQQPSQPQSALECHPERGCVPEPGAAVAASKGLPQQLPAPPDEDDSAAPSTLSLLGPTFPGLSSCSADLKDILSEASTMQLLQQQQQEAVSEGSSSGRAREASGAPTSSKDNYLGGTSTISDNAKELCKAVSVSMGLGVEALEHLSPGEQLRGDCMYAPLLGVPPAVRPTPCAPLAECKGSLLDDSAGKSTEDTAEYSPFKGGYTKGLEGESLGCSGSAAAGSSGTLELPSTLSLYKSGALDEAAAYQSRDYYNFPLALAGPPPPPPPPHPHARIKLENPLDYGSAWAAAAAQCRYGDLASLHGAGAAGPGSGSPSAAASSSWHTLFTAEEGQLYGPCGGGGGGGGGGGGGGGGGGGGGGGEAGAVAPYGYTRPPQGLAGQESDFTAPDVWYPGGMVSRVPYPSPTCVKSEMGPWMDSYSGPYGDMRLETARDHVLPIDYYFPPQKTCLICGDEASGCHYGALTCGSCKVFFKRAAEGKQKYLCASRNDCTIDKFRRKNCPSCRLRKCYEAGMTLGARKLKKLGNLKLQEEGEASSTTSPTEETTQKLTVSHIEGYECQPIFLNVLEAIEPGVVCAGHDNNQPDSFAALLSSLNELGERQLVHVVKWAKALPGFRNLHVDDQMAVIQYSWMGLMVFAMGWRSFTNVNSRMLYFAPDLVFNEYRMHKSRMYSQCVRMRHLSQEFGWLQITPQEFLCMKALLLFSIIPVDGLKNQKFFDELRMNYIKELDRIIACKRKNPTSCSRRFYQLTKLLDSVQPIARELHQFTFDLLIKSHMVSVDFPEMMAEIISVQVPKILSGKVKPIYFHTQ"}, "Estrogen Receptor (ER) [3]": {"molecular_target": "T1, Estrogen Receptor (ER)", "test": "kinetic SMT (kSMT) of ER after compound addition", "type": "cell-based", "settings": "100 nM compound"}, "Estrogen Receptor (ER) [4]": {"molecular_target": "T1, Estrogen Receptor (ER)", "test": "residence time imaging of ER-Halo (track length survival)", "type": "cell-based", "settings": "100 nM HSP90 inhibition, normalized to DMSO"}, "ER": {"molecular_target": "ER (Homo sapiens, UniProt P03372)", "test": "Western blot of ER after compound treatment", "type": "cell-based", "settings": "100 nM fulvestrant, 24 hours; MCF7, T47d, U2OS Halo-ER", "description": "Cells were grown in the same conditions as described previously. […] Cells are lysed in 200 μL 1× Cell Lysis Buffer (catalogue number 9803, Cell Signaling). Protein lysate concentration is then determined using BCA protein assay kit (Catalog number 23225, Pierce™ BCA Protein Assay Kit) following manufacturer instructions. Capillary Western Immunoassay were performed using Jess Protein Simple following manufacturer's instruction (protein simple, USA). Levels of αER (1:100, RM-9101) were normalized to loading control β-tubulin (1:100, NC0244815 LI-COR 92642213, Thermo Fisher). The peaks were analyzed with the Compass software (Protein Simple, USA)."}}, "note": "“Also recorded” adds a separate entry of the source. Like-named read-outs stand apart in the source and are kept apart here."}
{"compound": "4-hydroxytamoxifen", "values": [{"measurement": "change in ER fbound, bioactive screen", "setting": "Estrogen Receptor (ER) [1]", "value": "significantly increased fbound"}, {"measurement": "maximal increase in ER fbound, compared with SERDs fulvestrant and GDC-0927", "setting": "Estrogen Receptor (ER) [1]", "value": "lower maximal increases in fbound"}]}
{"compound": "CN(C)c1ccc(C(c2ccc(N(C)C)cc2)c2cc([N+](=O)[O-])ccc2Cl)cc1", "note": "[AL082D06]", "values": [{"measurement": "effect on GR chromatin binding (fbound)", "setting": "[2]", "value": "decrease in chromatin binding"}]}
{"compound": "CC(O)c1cc(C(=O)N[C@@H](C)Cn2ccc(-c3ccc(C#N)c(Cl)c3)n2)[nH]n1", "note": "(some centres unmarked) [Darolutamide]", "values": [{"measurement": "effect on AR chromatin binding (fbound)", "setting": "androgen receptor (AR)", "value": "decrease in chromatin binding"}]}
{"compound": "COc1cccc(-c2cc(F)ccc2[C@H]2Cc3nc(N)nc(C)c3C(=O)N2)n1", "note": "[HSP990]", "values": [{"measurement": "effect of pathway inhibitors on ER fbound / ER movement", "setting": "Estrogen Receptor (ER) [1]", "value": "increase in fbound"}, {"measurement": "t1/2 of increase in ER fbound", "setting": "Estrogen Receptor (ER) [3]", "value": 17.5, "unit": "min"}, {"measurement": "time at which overall effect on ER fbound reaches plateau", "setting": "Estrogen Receptor (ER) [3]", "value": "plateau after an hour"}, {"measurement": "decrease in total number of long binding events", "setting": "Estrogen Receptor (ER) [4]", "value": "two"}]}
{"compound": "C[C@]12CC[C@@H]3c4ccc(O)cc4C[C@@H](CCCCCCCCC[S+]([O-])CCCC(F)(F)C(F)(F)F)[C@H]3[C@@H]1CC[C@@H]2O", "note": "(some centres unmarked) [fulvestrant]", "values": [{"measurement": "change in ER fbound, bioactive screen", "setting": "Estrogen Receptor (ER) [1]; 1 μM compound versus DMSO, 5,067-molecule screen", "value": "caused an increase in fbound; also recorded: significantly increased fbound"}, {"measurement": "ER degradation by western blot", "setting": "ER", "value": "leads to the degradation of ER"}]}
{"compound": "CC(C)c1cc(-c2n[nH]c(=O)n2-c2ccc3c(ccn3C)c2)c(O)cc1O", "note": "[ganetespib]", "values": [{"measurement": "effect of pathway inhibitors on ER fbound / ER movement", "setting": "Estrogen Receptor (ER) [1]", "value": "increase in fbound"}, {"measurement": "t1/2 of increase in ER fbound", "setting": "Estrogen Receptor (ER) [3]", "value": 19.3, "unit": "min"}, {"measurement": "time at which overall effect on ER fbound reaches plateau", "setting": "Estrogen Receptor (ER) [3]", "value": "plateau after an hour"}, {"measurement": "decrease in total number of long binding events", "setting": "Estrogen Receptor (ER) [4]", "value": "four"}]}
